This passage reports IC50 results from BindingDB's records for doi:10.1124/jpet.105.099705 (Meiji Seika Kaisha, 2006).

Counter-ions that a name gives are not always drawn.

Test [1] has as its target T1, Neuropeptide Y receptor type 5 (Homo sapiens, UniProt Q15761).
T1 sequence (Q15761 whole entry): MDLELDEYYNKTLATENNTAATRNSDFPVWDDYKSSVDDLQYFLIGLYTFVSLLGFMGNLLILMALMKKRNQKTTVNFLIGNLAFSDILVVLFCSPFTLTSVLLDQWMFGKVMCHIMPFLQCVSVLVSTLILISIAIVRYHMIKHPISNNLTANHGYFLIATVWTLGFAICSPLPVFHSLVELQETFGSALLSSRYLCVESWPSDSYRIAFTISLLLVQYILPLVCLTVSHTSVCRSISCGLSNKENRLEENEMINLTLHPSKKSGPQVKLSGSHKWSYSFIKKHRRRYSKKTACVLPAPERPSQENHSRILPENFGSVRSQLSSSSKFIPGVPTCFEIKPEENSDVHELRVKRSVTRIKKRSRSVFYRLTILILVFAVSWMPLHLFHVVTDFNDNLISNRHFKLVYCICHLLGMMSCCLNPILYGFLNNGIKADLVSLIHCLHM

Test [2] concerns the target T2, Neuropeptide Y receptor type 2 (Homo sapiens, UniProt P49146).
T2 sequence (P49146 whole entry): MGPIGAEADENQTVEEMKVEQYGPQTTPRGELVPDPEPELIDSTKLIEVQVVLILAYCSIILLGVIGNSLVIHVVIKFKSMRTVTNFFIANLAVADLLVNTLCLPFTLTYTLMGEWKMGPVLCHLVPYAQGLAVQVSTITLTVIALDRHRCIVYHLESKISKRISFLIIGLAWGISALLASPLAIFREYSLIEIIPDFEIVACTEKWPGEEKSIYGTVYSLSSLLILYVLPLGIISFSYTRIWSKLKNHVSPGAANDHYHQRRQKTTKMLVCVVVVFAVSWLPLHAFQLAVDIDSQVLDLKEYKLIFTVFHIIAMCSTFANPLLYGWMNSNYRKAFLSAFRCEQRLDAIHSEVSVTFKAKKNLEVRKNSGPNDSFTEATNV

The target of test [3] is T3, Neuropeptide Y receptor type 1 (Homo sapiens, UniProt P25929).
T3 sequence (P25929 whole entry): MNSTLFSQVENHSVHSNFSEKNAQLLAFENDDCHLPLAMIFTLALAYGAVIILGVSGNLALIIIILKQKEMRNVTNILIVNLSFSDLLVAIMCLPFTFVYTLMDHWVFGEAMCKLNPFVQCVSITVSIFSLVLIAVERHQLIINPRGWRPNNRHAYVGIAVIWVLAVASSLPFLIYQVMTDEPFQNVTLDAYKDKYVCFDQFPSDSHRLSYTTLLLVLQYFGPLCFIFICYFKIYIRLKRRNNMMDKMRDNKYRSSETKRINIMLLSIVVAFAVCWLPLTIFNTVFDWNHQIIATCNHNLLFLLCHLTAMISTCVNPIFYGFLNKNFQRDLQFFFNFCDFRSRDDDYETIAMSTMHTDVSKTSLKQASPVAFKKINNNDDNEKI

Usually IC50 stands for the concentration needed to halve the response being measured. Regarding `CC(C)n1c2c(c3cc(NC(=O)N(C)CCc4ccncc4)ccc31)CCCC2` [3-(5,6,7,8-tetrahydro-9-isopropyl-carbazol-3-yl)-1-methyl-1-(2-pyridin-4-yl-ethyl)-ureanbsphydrochloride], the IC50 was 4.3 nM in test [1] and more than 10000 nM in test [2].
As to `CC1(C)CC(=O)C(C2C3=C(CC(C)(C)CC3=O)Oc3ccccc32)C(=O)C1` (stereo not given) [CAS_6508-43-6], the IC50 in test [1] was 25 nM; in test [3], more than 10000 nM; in test [2], more than 10000 nM.
